Values of other authors, collected in patent US12667556B2, “Extended release injectable formulations comprising an isoxazoline active agent, methods and uses thereof” (BOEHRINGER INGELHEIM ANIMAL HEALTH USA INC., priority 2015, dated 2026).
Values after ≈ are worked out from the molar mass of the structure shown.

System: fleas

## O=C(CNC(=O)c1ccc(C2=NOC(c3cc(Cl)cc(C(F)(F)F)c3)(C(F)(F)F)C2)c2ccccc12)NCC(F)(F)F (centres unmarked) [compound (IIc), 4-[5-[3-chloro-5-(trifluoromethyl)phenyl]-4,5-dihydro-5-(trifluoromethyl)-3-isoxazolyl]-N-[2-oxo-2-[(2,2,2-trifluoroethyl)amino]ethyl]-1-naphthalenecarboxamide]
Letendre et al., Veterinary Parasitology 201 (2014) 190-197
  EC90 (plasma concentration) against fleas on dogs: 0.023 µg/mL (≈ 0.0367 µM)
known, literature
  plasma concentration known to effectively control fleas on dogs: about 20 ng/ml
